Source: paper PMC9086869 (RSC Advances, 2018)

Target: recombinant human CYP3A4 enzyme (Homo sapiens, UniProt P08684)
Test: CYP3A4-Glo Screening System luminescent CYP3A4 inhibition assay
Conditions: for CYP3A4 inhibition activity (in words): compared with pterostilbene and ellipticine

Chain of recombinant human CYP3A4 enzyme (P08684 whole entry): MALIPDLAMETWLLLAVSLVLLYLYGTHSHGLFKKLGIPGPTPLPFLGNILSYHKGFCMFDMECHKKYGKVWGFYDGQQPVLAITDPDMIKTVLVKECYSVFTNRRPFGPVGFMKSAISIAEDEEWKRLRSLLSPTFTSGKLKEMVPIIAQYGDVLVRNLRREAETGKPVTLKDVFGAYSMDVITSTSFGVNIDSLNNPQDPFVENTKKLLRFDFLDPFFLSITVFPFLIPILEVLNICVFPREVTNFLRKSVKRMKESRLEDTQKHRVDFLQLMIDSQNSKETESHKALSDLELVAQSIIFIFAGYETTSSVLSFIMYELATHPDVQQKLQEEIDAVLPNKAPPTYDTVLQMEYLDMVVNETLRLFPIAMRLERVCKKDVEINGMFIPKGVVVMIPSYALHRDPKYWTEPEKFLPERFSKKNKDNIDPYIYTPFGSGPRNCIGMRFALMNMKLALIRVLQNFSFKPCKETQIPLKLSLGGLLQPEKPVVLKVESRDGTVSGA

SMILES	IC50	CYP3A4 inhibition activity (in words)
O=C(/C=C/c1ccc(O)cc1)CC(=O)/C=C/c1ccc(O)cc1 [Bisdemethoxycurcumin]	14.8 ± 2.09 µM	weaker
Cc1c2ccncc2c(C)c2c1[nH]c1ccccc12 [Ellipticine]	0.052 ± 0.003 µM	
CC(C)=CCOc1c2ccoc2cc2oc(=O)ccc12 [Isoimperatorin]	18.2 ± 1.72 µM	weaker
COc1cc(/C=C/c2ccc(O)cc2)cc(OC)c1 [Pterostilbene]	1.12 ± 0.056 µM	
